From paper doi:10.1101/2025.02.17.637997, “Phosphorylation-State Modulated Binding of HSP70: Structural Insights and Compensatory Protein Engineering” (bioRxiv, 2025)

How the values were obtained:
Type in all cases: binding
[1] = molecular target: T1, CHIP TPR (residues 21–154) (Homo sapiens, UniProt Q9UNE7); assay: Biolayer interferometry, CHIP TPR (21-154); settings: BLI; pEEVD vs EEVD; Fig. 2E
T1 construct: the extended TPR domain of CHIP (residues 21–154) using BLI; His; made in house
Excerpt: (§1) A complete list of vectors is listed in Table S1 and deposited at Addgene (pending ID). Plasmids were maintained and propagated in DH5-alpha E. coli and purified using the Miniprep plasmid kit (Qiagen) or Quantum Prep® Plasmid Midiprep Kit (Bio-Rad). We used the Q5 Site-Directed Mutagenesis Kit (NEB) or […] II XL (NC9045762, Agilent Technologies) site-directed mutagenesis kit for editing plasmids and validated via DNA sequencing. Lifetein or Genscript synthesized the peptides used in the study. […] The amino-terminal biotin-labeled HSP70 tail peptide (biotin-[…], termed as biotin-EEVD) and the amino-terminal biotin-labeled pT-HSP70 tail peptide (biotin-GSGSGP(pT)IEEVD, termed as biotin-pEEVD) were purchased (Lifetein). The peptides used for fluorescent polarization were N-FITC-Ahx-[…] (EEVD) or N-FITC-Ahx-GSGP(pT)IEEVD (pEEVD). Recombinant CHIP-TPR constructs were recombinantly expressed using the pHis//2 CHIP-TPR (21–154) plasmid and purified as previously described ([21]) and additional CHIP proteins were purified as previously described ([22]).
Bio-layer interferometry measured peptide binding using a BLItz instrument (FortéBio, Sartorius) with streptavidin (SA) sensors. […] Affinities (Kd) were calculated by the BLItz Pro software as Kd=koff/kon, where koff and kon were determined by individual fits to the “dissociation step” and “association step,” respectively, for each run.

[2] = molecular target: T2, CHIP-G132N (Homo sapiens, UniProt Q9UNE7, G132N); assay: Biolayer interferometry, CHIP-G132N TPR; settings: BLI; kon; CHIP-G132N TPR towards pEEVD; Fig. S2
T2 construct: Recombinant CHIP-TPR constructs were recombinantly expressed using the pHis//2 CHIP-TPR (21–154) plasmid; His; made in house
T2 sequence (Q9UNE7 21-154 G132N): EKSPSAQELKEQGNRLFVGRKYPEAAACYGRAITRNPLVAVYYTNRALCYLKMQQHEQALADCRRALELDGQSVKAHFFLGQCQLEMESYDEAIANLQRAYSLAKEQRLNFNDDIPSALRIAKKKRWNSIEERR
Experimental: Bio-layer interferometry measured peptide binding using a BLItz instrument (FortéBio, Sartorius) with streptavidin (SA) sensors. Biotin-EEVD and biotin-pEEVD were solubilized in 20 mM HEPES, 150 mM NaCl, pH 7.0. Affinity measurements were made using the advanced kinetic protocol within the BLItz Pro system software. Biosensors were hydrated for ten minutes in assay buffer comprising 20 mM HEPES, 150 mM NaCl, 5 mM β-mercaptoethanol, pH 7.2. For each affinity measurement, a new, hydrated biosensor was placed on the BLItz tip, and the “Initial Baseline” step was completed by incubation for 30 seconds in 500 μl assay buffer in an opaque black microcentrifuge tube (Argos Technologies). Peptides were loaded during the “Loading Step” by incubating the tip in 4 μl of either peptide for 60 seconds. The “Baseline step” was then conducted by incubation for 30 seconds in 500 μl assay buffer in an opaque black microcentrifuge tube. The “Association step” was performed by incubating the tip in 4 μl of the appropriate TPR protein construct, at protein concentrations of 1 to 25 μM, in assay buffer in an opaque black microcentrifuge tube for 120 seconds. […] Affinities (Kd) were calculated by the BLItz Pro software as Kd=koff/kon, where koff and kon were determined by individual fits to the “dissociation step” and “association step,” respectively, for each run.

[3] = tested on: CHIP-WT or CHIP-G132N; assay: Fluorescence polarization, phosphorylated vs unmodified EEVD peptide; settings: FP, CHIP-WT or CHIP-G132N (Fig. 2B)
Excerpt: as §1
The N-terminally-labelled peptides were loaded into PCR reaction tubes at 2X (40 nM), with the final concentration being 20 nM. Recombinant CHIP constructs were added into the tubes at the indicated concentrations. […] The polarization reads were normalized to the dilution buffer. […]

T1 sequence (Q9UNE7 21-154): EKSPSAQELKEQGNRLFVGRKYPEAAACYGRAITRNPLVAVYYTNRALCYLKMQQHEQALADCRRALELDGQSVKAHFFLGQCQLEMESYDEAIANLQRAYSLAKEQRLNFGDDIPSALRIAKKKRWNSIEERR

decrease in binding affinity of CHIP TPR towards the phosphorylated EEVD tail [1]: ~10 fold | association rate [2]: higher association rates
Substance: N-FITC-Ahx-GSGP(pT)IEEVD [pEEVD, phosphorylated HSP70 tail peptide used for fluorescent polarization]
decrease in interaction compared to the unmodified threonine [3]: 6–10 fold
